Measured values published in the supplement of paper PMC8967900.

Experiments:
Assay in all cases: selective drug sensitivity score (sDSS, relative to normal bone marrow) (sDSS (score)); higher = more potent and effective on the cell line relative to normal bone marrow cells
Details in all cases: 72 h
380 = tested on: 380
ALL-PO = tested on: ALL-PO
CCRF-CEM = tested on: CCRF-CEM
COG-LL-317 = tested on: COG-LL-317
COG-LL-319h = tested on: COG-LL-319h
COG-LL-394h = tested on: COG-LL-394h
DND-41 = tested on: DND-41
HPB-ALL = tested on: HPB-ALL
JURKAT = tested on: JURKAT
KOPN-8 = tested on: KOPN-8
MN-60 = tested on: MN-60
MOLT-16 = tested on: MOLT-16
MOLT-4 = tested on: MOLT-4
NALL-1 = tested on: NALL-1
P30-OHKUBO = tested on: P30-OHKUBO
PEER = tested on: PEER
RCH-ACV = tested on: RCH-ACV
REH = tested on: REH
SUP-B15 = tested on: SUP-B15
TANOUE = tested on: TANOUE
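Also: ALL cell lines in 384-well plates, five doses spanning 10,000-fold, each plate scaled between vehicle and 100 µmol/L benzalkonium chloride controls, sDSS an adapted area-under-curve metric.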

| Structure (SMILES) | selective drug sensitivity score 380 | selective drug sensitivity score (ALL-PO) | selective drug sensitivity score (CCRF-CEM) | selective drug sensitivity score (COG-LL-317) | selective drug sensitivity score (COG-LL-319h) | selective drug sensitivity score (COG-LL-394h) | selective drug sensitivity score (DND-41) | selective drug sensitivity score (HPB-ALL) | selective drug sensitivity score (JURKAT) | selective drug sensitivity score (KOPN-8) | selective drug sensitivity score (MN-60) | selective drug sensitivity score (MOLT-16) | selective drug sensitivity score (MOLT-4) | selective drug sensitivity score (NALL-1) | selective drug sensitivity score (P30-OHKUBO) | selective drug sensitivity score (PEER) | selective drug sensitivity score (RCH-ACV) | selective drug sensitivity score (REH) | selective drug sensitivity score (SUP-B15) | selective drug sensitivity score (TANOUE) |
| --- | --- | --- | --- | --- | --- | --- | --- | --- | --- | --- | --- | --- | --- | --- | --- | --- | --- | --- | --- | --- |
| CC[C@@H]1C(=O)OC[C@@H]1Cc1cncn1C [Pilocarpine] (top concentration 40000 nM) | -1.56 | -1.56 | -1.56 | -1.56 | -1.56 | -1.56 | 4.34 | 7.34 | -1.56 | -1.56 | -1.56 | 1.94 | -1.26 | 7.44 | -1.56 | -1.56 | -1.56 | -1.56 | -1.56 | -0.36 |
| Nc1nc(Nc2ccc3c(c2)CC[C@@H](N2CCCC2)CC3)nn1-c1cc2c(nn1)-c1ccccc1CCC2 [BGB324] (top concentration 10000 nM) | -0.88 | 6.02 | 1.92 | -0.38 | 0.22 | 2.82 | 1.32 | -2.88 | 1.02 | 0.02 | -2.48 | 2.92 | 3.22 | -2.68 | 5.82 | 4.42 | 5.02 | 0.92 | 3.02 | -3.88 |
| C[C@H]1C[C@@H](n2c(Nc3ccc(OC(F)(F)F)cc3)nc3cc(CCC(=O)O)ccc32)CC(C)(C)C1 (top concentration 10000 nM) | -0.14 | 2.86 | 1.56 | 2.56 | -0.14 | -0.14 | -0.14 | 5.56 | 4.26 | 0.06 | -0.04 | 5.66 | 3.06 | -0.14 | -0.14 | 2.16 | -0.14 | 0.36 | 2.16 | -0.14 |
| CC(=O)O[C@H]1C(=O)[C@@]2(C)[C@H]([C@H](OC(=O)c3ccccc3)[C@]3(O)C[C@H](OC(=O)[C@H](O)[C@@H](NC(=O)c4ccccc4)c4ccccc4)C(C)=C1C3(C)C)[C@]1(OC(C)=O)CO[C@@H]1C[C@@H]2O [Paclitaxel] (top concentration 1000 nM) | 19.9 | 17.8 | 18.3 | 19.6 | 21.5 | 6.84 | 2.04 | 14.1 | 18.3 | 22.4 | -0.36 | 21.7 | 19.3 | 12.2 | 22 | 22.2 | 21.8 | 23.1 | 21.1 | -10.8 |
| CN(C)C(=O)c1ccc(S(=O)(=O)c2ccc(NC(=O)[C@@](C)(O)C(F)(F)F)c(Cl)c2)cc1 [AZD7545] (top concentration 10000 nM) | -0.2 | 2.6 | 0 | 0.7 | 0.8 | 4.1 | 0.1 | 0.3 | 7 | 3.1 | 3.3 | 5.3 | 1.6 | -0.2 | 0.6 | 6.2 | 3 | 4.4 | 4.9 | 3.4 |
| CN1CCN(C(=O)c2ccc3cc(CCNc4ncnc5ccc(C#N)cc45)ccc3c2)CC1 [Senexin_B] (top concentration 1000 nM) | -0.6 | -0.6 | 1.7 | 0.5 | -0.6 | 1 | -0.6 | -0.6 | 3.1 | -0.6 | 1.4 | 1.8 | -0.6 | -0.6 | 0.4 | 1.8 | 2 | -0.6 | 2.8 | 1.1 |
| C=CC(=O)Nc1cccc(Nc2nc(Nc3ccc(N4CCN(C(C)=O)CC4)cc3OC)ncc2C(F)(F)F)c1 [Rociletinib] (top concentration 10000 nM) | -0.16 | 10.3 | 2.44 | 1.44 | 0.24 | 5.24 | -0.56 | 1.74 | 2.64 | 1.14 | -0.76 | 2.04 | 2.04 | 3.14 | 4.24 | 4.24 | 2.54 | 0.84 | 1.44 | -3.16 |
| CC[C@@H]1CN(C(=O)NCC(F)(F)F)C[C@@H]1c1cnc2cnc3[nH]ccc3n12 [Upadacitinib] (top concentration 10000 nM) | -0.16 | -7.16 | -4.66 | -7.16 | -7.16 | -7.16 | 0.84 | -7.16 | -6.86 | -7.16 | -7.16 | -7.16 | -7.16 | -7.16 | -3.16 | -6.66 | -7.16 | -7.16 | -7.16 | -6.86 |
| CC(O)(CS(=O)(=O)c1ccc(F)cc1)C(=O)Nc1ccc(C#N)c(C(F)(F)F)c1 (stereo not given) [Bicalutamide] (top concentration 10000 nM) | 1.72 | 3.92 | -0.38 | 0.52 | 3.72 | -0.18 | -1.68 | -1.68 | 0.42 | 4.92 | 1.42 | 6.92 | 2.32 | -1.68 | -1.68 | -0.18 | -1.68 | -1.68 | 4.62 | -1.28 |
| CC[C@H](CO)Nc1nc(NCc2ccccc2)c2ncn(C(C)C)c2n1 [Seliciclib] (top concentration 10000 nM) | -1.04 | -1.04 | 2.06 | 3.56 | 1.66 | -1.04 | 9.26 | -0.64 | -0.84 | 4.26 | -1.04 | 0.26 | -1.04 | -0.74 | -0.14 | -0.24 | 2.16 | -0.14 | 3.26 | -1.04 |
| Cc1cc(Nc2nc(N[C@@H](C)c3ncc(F)cn3)ncc2Cl)[nH]n1 [AZD1480] (top concentration 1000 nM) | -0.58 | 0.72 | -3.98 | -2.78 | -1.68 | -4.18 | 0.72 | -3.48 | -3.68 | -4.28 | -4.28 | -4.28 | -3.28 | -1.48 | -4.18 | -3.48 | -2.18 | -4.08 | 0.02 | -4.28 |
| O=C(O)c1ccc(CN2CCC(CN[C@@H]3C[C@H]3c3ccccc3)CC2)cc1 (top concentration 100000 nM) | -0.62 | 2.08 | -0.02 | 6.48 | -0.62 | -0.62 | -0.62 | -0.62 | -0.62 | -0.62 | -0.62 | 0.28 | -0.62 | -0.32 | -0.62 | -0.22 | -0.62 | -0.22 | -0.52 | -0.62 |
| CC(=O)O[C@@]12CO[C@@H]1C[C@H](O)[C@@]1(C)C(=O)[C@H](O)C3=C(C)[C@@H](OC(=O)[C@H](O)[C@@H](NC(=O)OC(C)(C)C)c4ccccc4)C[C@@](O)([C@@H](OC(=O)c4ccccc4)[C@H]21)C3(C)C [Docetaxel] (top concentration 1000 nM) | 22.4 | 15.5 | 19.8 | 20.6 | 21.2 | 8.5 | 3.3 | 12.5 | 17.1 | 23.7 | -1 | 23.5 | 14.8 | 15.9 | 20.4 | 22.3 | 22.6 | 21.1 | 21.7 | -11.8 |
| COc1cc([C@@H]2c3cc4c(cc3[C@@H](O[C@@H]3O[C@@H]5CO[C@@H](C)O[C@H]5[C@H](O)[C@H]3O)[C@H]3COC(=O)[C@H]23)OCO4)cc(OC)c1O [Etoposide] (top concentration 10000 nM) | 21.3 | 5.44 | 20.2 | 29.8 | 23.2 | 7.04 | 11.3 | 7.74 | 14.2 | 24.9 | -0.86 | 28.9 | 23.5 | 14.9 | 16.3 | 6.84 | 25.1 | 20.3 | 26.8 | -6.26 |
| O=c1ncn2nc(Sc3ccc(F)cc3F)ccc2c1-c1c(Cl)cccc1Cl [Neflamapimod] (top concentration 10000 nM) | 4.7 | 5 | 0 | 1.7 | 0 | 1.3 | 0.5 | 0.8 | 1.7 | 4 | 1 | 2.1 | 0 | 2.1 | 2.2 | 2.3 | 6.7 | 3.1 | 0.5 | 1.4 |
| Cc1c2oc3c(C)ccc(C(=O)N[C@@H]4C(=O)N[C@H](C(C)C)C(=O)N5CCC[C@H]5C(=O)N(C)CC(=O)N(C)[C@@H](C(C)C)C(=O)O[C@@H]4C)c3nc-2c(C(=O)N[C@@H]2C(=O)N[C@H](C(C)C)C(=O)N3CCC[C@H]3C(=O)N(C)CC(=O)N(C)[C@@H](C(C)C)C(=O)O[C@@H]2C)c(N)c1=O [Dactinomycin] (top concentration 1000 nM) | 17.2 | 8.24 | 7.04 | 20.7 | 5.94 | 12.2 | 11 | 6.14 | 2.64 | 17.8 | 8.94 | 18.8 | 17.3 | 1.44 | 19.1 | 0.64 | 18.5 | 16.3 | 20.7 | -11.2 |
| Clc1ccc(C(c2ccccc2Cl)C(Cl)Cl)cc1 (stereo not given) [Mitotane] (top concentration 10000 nM) | -0.08 | -0.08 | -0.08 | -0.08 | -0.08 | -0.08 | -0.08 | 5.12 | -0.08 | 4.32 | -0.08 | -0.08 | -0.08 | -0.08 | -0.08 | -0.08 | -0.08 | -0.08 | -0.08 | -0.08 |
